Results as given in US9051310B2, “Nicotinamide derivative or salt thereof” (FUJIFILM Corporation, priority 2011, dated 2015).

The molecules below were run against T1, glutathione S-transferase (GST)-linked full-length human Syk protein (Homo sapiens, UniProt P43405) (assay: Syk enzyme assay). Conditions: 0.83 nM Syk, time-resolved fluorescence; read-out: IC50 of Syk-inhibitory activity.
T1 construct: glutathione S-transferase (GST)-linked full-length human Syk protein; purchased Carna Biosciences; host or cells: Baculovirus expression system
Format: biochemical
Description: A glutathione S-transferase (GST)-linked full-length human Syk protein (Carna Biosciences), which had been generated using a Baculovirus expression system, was used in the Syk enzyme assay.
7.5 μl of a reaction solution (0.83 nM Syk, 20 mM HEPES, 10 mM MgCl2, 50 mM NaCl, 2 mM DTT, 0.05% BSA, pH 7.0) containing a Syk protein and a predetermined concentration of a test compound was shaken for 2 minutes, and it was then left at rest at room temperature for 13 minutes. Thereafter, 0.5 μM substrate peptide (Biotin-[…]-NH2) and 5 μL of a solution containing 67.5 μM ATP were added to the reaction solution, and the obtained mixture was then shaken for 2 minutes. The reaction solution was further left at rest at room temperature for 40 minutes, so as to carry out an enzyme reaction.
Thereafter, 50 μL of a reaction termination solution [60 nM APC-SA, 0.45 μg/mL Eu-PT66, 30 mM HEPES (pH 7.0), 150 mM KF, 30 mM EDTA, 0.15% BSA, 0.075% Tween20] containing Allophycocyanin-Streptavidin (APC-SA; PerkinElmer) and an Eu-W1024-labeled anti-phosphotyrosine PT66 antibody (Eu-PT66; PerkinElmer) was added to the reaction solution to terminate the enzyme reaction. At the same time, the reaction solution was left at rest at room temperature for 1 hour, so as to carry out an antigen-antibody reaction. Thereafter, using EnVision (PerkinElmer), the level of time-resolved fluorescence was measured at 615 nm and 665 nm, so that the phosphorylation of the substrate peptide was measured.
The following are used in Table 5 to denote standards for evaluating IC50 of Syk-inhibitory activity. • A: Up to 10 nM • B: 10 to 50 nM • C: 50 to 100 nM

Row | SMILES | IC50 [nM]
1 | CC[C@H](N)[C@@H](C)Nc1nc(Nc2cc(F)cc3c2cnn3CC)c(C(N)=O)cc1F [Example 2-373, 6-(((2R,3S)-3-aminopentan-2-yl)amino)-2-((1-ethyl-6-fluoro-1H-indazol-4-yl)amino)-5-fluoronicotinamide] | < 10
2 | CC[C@H](N)[C@@H](C)Nc1nc(Nc2cncc3c2cnn3CC(F)F)c(C(N)=O)cc1F [Example 2-402, 6-(((2R,3S)-3-aminopentan-2-yl)amino)-2-((1-(2,2-difluoroethyl)-1H-pyrazolo[3,4-c]pyridin-4-yl)amino)-5-fluoronicotinamide] | < 10
3 | NC(=O)c1cc(F)c(N[C@@H]2CCCC[C@@H]2N)nc1Nc1ccc(F)c(F)c1 [Example 2-447, 6-(((1R,2S)-2-aminocyclohexyl)amino)-2-((3,4-difluorophenyl)amino)-5-fluoronicotinamide] | < 10
4 | CC[C@@H](Nc1nc(Nc2cccc3c2cnn3CCOC)c(C(N)=O)cc1F)[C@H](C)N [Example 2-304, 6-(((2S,3R)-2-aminopentan-3-yl)amino)-5-fluoro-2-((1-(2-methoxyethyl)-1H-indazol-4-yl)amino)nicotinamide] | < 10
5 | C[C@H](N)[C@@H](Cc1ccccc1)Nc1nc(Nc2ccc3c(c2)c(N(C)C)nn3C)c(C(N)=O)cc1F [Example 2-424, 6-(((2R,3S)-3-amino-1-phenylbutan-2-yl)amino)-2-((3-(dimethylamino)-1-methyl-1H-indazol-5-yl)amino)-5-fluoronicotinamide] | < 10
6 | COCCn1nc(N(C)C)c2cc(Nc3nc(N[C@H](CC(C)C)[C@H](C)N)c(F)cc3C(N)=O)ccc21 [Example 2-505, 6-(((2S,3R)-2-amino-5-methylhexan-3-yl)amino)-2-((3-(dimethylamino)-1-(2-methoxyethyl)-1H-indazol-5-yl)amino)-5-fluoronicotinamide] | 10 to 50
7 | COCCn1nc(N(C)C)c2cc(Nc3nc(N[C@H](C4CC4)[C@H](C)N)c(F)cc3C(N)=O)ccc21 [Example 2-504] | 10 to 50
8 | CC[C@H](N)[C@@H](C)Nc1nc(Nc2ccc3c(c2)c(N(C)CCOC)nn3C)c(C(N)=O)cc1F [Example 2-461, 6-(((2R,3S)-3-aminopentan-2-yl)amino)-5-fluoro-2-((3-((2-methoxyethyl)(methyl)amino)-1-methyl-1H-indazol-5-yl)amino)nicotinamide] | 10 to 50
9 | COCCn1ncc2c(Nc3nc(N[C@H](CC(C)C)[C@H](C)N)c(F)cc3C(N)=O)cccc21 [Example 2-308, 6-(((2S,3R)-2-amino-5-methylhexan-3-yl)amino)-5-fluoro-2-((1-(2-methoxyethyl)-1H-indazol-4-yl)amino)nicotinamide] | < 10
10 | CCOc1ncc(Nc2nc(N[C@H](CC)[C@H](C)N)c(F)cc2C(N)=O)cc1-n1cccn1 [Example 2-200, 6-(((2S,3R)-2-aminopentan-3-yl)amino)-2-((6-ethoxy-5-(1H-pyrazol-1-yl)pyridin-3-yl)amino)-5-fluoronicotinamide] | 10 to 50
11 | COc1ccc([C@@H](Nc2nc(Nc3cc(OC)nc(OC)c3)c(C(N)=O)cc2F)[C@H](C)N)cc1 [Example 2-357, 6-(((1R,2S)-2-amino-1-(4-methoxyphenyl)propyl)amino)-2-((2,6-dimethoxypyridin-4-yl)amino)-5-fluoronicotinamide] | 10 to 50
12 | Cc1ncc(Nc2nc(N[C@H](C)[C@@H](N)C3CC3)c(F)cc2C(N)=O)cc1-n1nccn1 [Example 2-226, 6-(((1S,2R)-1-amino-1-cyclopropylpropan-2-yl)amino)-5-fluoro-2-((6-methyl-5-(2H-1,2,3-triazol-2-yl)pyridin-3-yl)amino)nicotinamide] | 50 to 100
13 | COc1ncc(Nc2nc(N[C@@H]3CCCC[C@@H]3N)c(F)cc2C(N)=O)c2cnn(C)c12 [Example 2-407, 6-(((1R,2S)-2-aminocyclohexyl)amino)-5-fluoro-2-((7-methoxy-1-methyl-1H-pyrazolo[3,4-c]pyridin-4-yl)amino)nicotinamide] | 10 to 50
14 | Cn1nc(N2CCCC2=O)c2cc(Nc3nc(N[C@@H]4CCCC[C@@H]4N)c(F)cc3C(N)=O)ccc21 [Example 2-431, 6-(((1R,2S)-2-aminocyclohexyl)amino)-5-fluoro-2-((1-methyl-3-(2-oxopyrrolidin-1-yl)-1H-indazol-5-yl)amino)nicotinamide] | 10 to 50
15 | C[C@H](N)[C@H](Nc1nc(Nc2ccc3c(c2)c(N(C)C)nn3C)c(C(N)=O)cc1F)c1ccccc1 [Example 2-315, 6-(((1R,2S)-2-amino-1-phenylpropyl)amino)-2-((3-(dimethylamino)-1-methyl-1H-indazol-5-yl)amino)-5-fluoronicotinamide] | 10 to 50
16 | Cc1cnn(-c2cncc(Nc3nc(N[C@H](C4CCC4)[C@H](C)N)c(F)cc3C(N)=O)c2)c1 [Example 2-523, 6-(((1R,2S)-2-amino-1-cyclobutylpropyl)amino)-5-fluoro-2-((5-(4-methyl-1H-pyrazol-1-yl)pyridin-3-yl)amino)nicotinamide] | < 10
17 | CNc1ncc(Nc2nc(N[C@H](CC(C)C)[C@H](C)N)c(F)cc2C(N)=O)cc1F [Example 2-278, 6-(((2S,3R)-2-amino-5-methylhexan-3-yl)amino)-5-fluoro-2-((5-fluoro-6-(methylamino)pyridin-3-yl)amino)nicotinamide] | 10 to 50

Continued, values first:

Row | IC50 [nM] | SMILES
18 | 10 to 50 | CC[C@H](N)[C@@H](CC)Nc1nc(Nc2cc(F)c3c(c2)c(N(C)C)nn3C)c(C(N)=O)cc1F [Example 2-195, 6-(((3R,4S)-4-aminohexan-3-yl)amino)-2-((3-(dimethylamino)-7-fluoro-1-methyl-1H-indazol-5-yl)amino)-5-fluoronicotinamide]
19 | 10 to 50 | COCCOc1ncc(Nc2nc(N[C@H](C3CC3)[C@H](C)N)c(F)cc2C(N)=O)cc1-n1nccn1 [Example 2-161, 6-(((1R,2S)-2-amino-1-cyclopropylpropyl)amino)-5-fluoro-2-((6-(2-methoxyethoxy)-5-(2H-1,2,3-triazol-2-yl)pyridin-3-yl)amino)nicotinamide]
20 | 10 to 50 | CC[C@@H](Nc1nc(Nc2cnc(OC)c(-n3ccnn3)c2)c(C(N)=O)cc1F)[C@H](C)N [Example 2-204, 6-(((2S,3R)-2-aminopentan-3-yl)amino)-5-fluoro-2-((6-methoxy-5-(1H-1,2,3-triazol-1-yl)pyridin-3-yl)amino)nicotinamide]
21 | < 10 | C[C@H](N)[C@H](Nc1nc(Nc2ccc3[nH]nc(N(C)C)c3c2)c(C(N)=O)cc1F)C1CC1 [Example 2-494, 6-(((1R,2S)-2-amino-1-cyclopropylpropyl)amino)-2-((3-(dimethylamino)-1H-indazol-5-yl)amino)-5-fluoronicotinamide]
22 | 10 to 50 | CC[C@H](N)[C@H](Nc1nc(Nc2cccnc2)c(C(N)=O)cc1F)C1CC1 [Example 2-485, 6-(((1R,2S)-2-amino-1-cyclopropylbutyl)amino)-5-fluoro-2-(pyridin-3-ylamino)nicotinamide]
23 | < 10 | COCCn1ncc2c(Nc3nc(N[C@H](CC(C)C)[C@H](C)N)c(F)cc3C(N)=O)cncc21 [Example 2-390, 6-(((2S,3R)-2-amino-5-methylhexan-3-yl)amino)-5-fluoro-2-((1-(2-methoxyethyl)-1H-pyrazolo[3,4-c]pyridin-4-yl)amino)nicotinamide]
24 | 10 to 50 | CC[C@@H](Nc1nc(Nc2ccnc(OCCOC)c2)c(C(N)=O)cc1F)[C@H](C)N [Example 2-34, 6-(((2S,3R)-2-aminopentan-3-yl)amino)-5-fluoro-2-((2-(2-methoxyethoxy)pyridin-4-yl)amino)nicotinamide]
25 | < 10 | CC[C@@H](Nc1nc(Nc2ccc3[nH]nc(N(C)C)c3c2)c(C(N)=O)cc1F)[C@H](C)N [Example 2-493, 6-(((2S,3R)-2-aminopentan-3-yl)amino)-2-((3-(dimethylamino)-1H-indazol-5-yl)amino)-5-fluoronicotinamide]
26 | < 10 | CC[C@H](N)[C@H](Nc1nc(Nc2ccc3c(c2)c(C)nn3C)c(C(N)=O)cc1F)C1CC1 [Example 2-545, 6-(((1R,2S)-2-amino-1-cyclopropylbutyl)amino)-2-((1,3-dimethyl-1H-indazol-5-yl)amino)-5-fluoronicotinamide]
27 | < 10 | Cc1ncc(Nc2nc(N[C@H](c3ccc(F)c(F)c3)[C@H](C)N)c(F)cc2C(N)=O)cc1-n1nccn1 [Example 2-552, 6-(((1R,2S)-2-amino-1-(3,4-difluorophenyl)propyl)amino)-5-fluoro-2-((6-methyl-5-(2H-1,2,3-triazol-2-yl)pyridin-3-yl)amino)nicotinamide]
28 | < 10 | COc1nn(C)c2ncc(Nc3nc(N[C@@H](CN)CC(C)C)c(F)cc3C(N)=O)cc12 [Example 2-250, (R)-6-((1-amino-4-methylpentan-2-yl)amino)-5-fluoro-2-((3-methoxy-1-methyl-1H-pyrazolo[3,4-b]pyridin-5-yl)amino)nicotinamide]
